The values below come from patent US9745357B2, “Peptides used for treating cancers and, in particular, chronic lymphoid leukaemia” (Centre National de la Recherche Scientifique, priority 2009, dated 2017).

No end group written: not given here.

In experiment [1] the test system is cap-dependent translation (eIF4E-dependent). Briefly: Effect of the peptides on translation of capped luciferase mRNA in rabbit reticulocyte lysate. The experiment is classed as biochemical. Conditions: 50 μM peptide, compared with DMSO = 100%; FIG. 2. Here is the method: The peptides having the IRS motif and the sequences of 4EBPlike type (A1WT, BPSgWT, and BP2WT) or the mutant sequences of 4EPBlike type (A1YALA, BPSgYALA, BP2YALA) are incubated in rabbit reticulocyte lysate containing capped mRNAs encoding luciferase, an enzyme of which the activity can be easily assayed. The translational activity is directly proportional to the activity of the luciferase produced. The translational activity in the presence of peptide is compared with that obtained during the addition of an equivalent volume of DMSO, considered to be 100%.
The peptides were produced, purified by HPLC (purity>95%), and freeze-dried by Thermofisher Scientific. The peptides were then dissolved at 10 mM in DMSO.
The capped mRNAs encoding Renilla luciferase (Luc R) were produced by the T7 Message Machine Kit system (Ambion) from the pGb-Eg2-410Δ2-hxG-A65 plasmid linearized with EcoRV (Legagneux V, Omilli F, Osborne HB (1995) Substrate-specific regulation of RNA deadenylation in Xenopus embryo and activated egg extracts. RNA 1: 1001-1008).
The Luc R mRNAs were translated for one hour at 30° C. in rabbit reticulocyte lysate (Flexi Rabbit Reticulocyte Lysate System, Promega) in the presence of 50 μM of peptide. The luciferase activity was determined using the Renilla luciferase assay (Promega) on the Tristar LB941 luminometer (Berthold).
A capped mRNA (having a cap at the 5′ end) encoding luciferase, a protein which can be easily assayed by measuring its activity, was translated in the presence of these various peptides in rabbit reticulocyte lysate (FIG. 2). The luciferase activity measured is directly proportional to the amount of luciferase protein produced and therefore to the cap-dependent translational activity. Since the peptides are dissolved in DMSO, it was important to test the effect of DMSO on the translation. […] The translational activity in the presence of peptide was compared with that obtained when an equal volume of DMSO is added, considered to be equal to 100%.

Experiment [2] has as its system B-cell prolymphocytic leukemia cells. Type of experiment: cell-based, human. Conditions: 24 h. Here is the method: (§1) FIG. 7: Activity of the A1WT peptide on cells of lymphocytic, lymphoid, gastric, colonic or renal origin The cells are prepared and placed in culture (see Materials and Methods) and then incubated for 4 H with the A1WT or A1 YALA peptide. The percentage cell survival corresponds to the percentage of cells labeled neither with annexin nor with propidium iodide, evaluated by flow cytometry. The names of the pathological conditions from which the patients from whom the samples are taken are suffering are indicated under the figure. The control T (L.T.) and B (L.B.) lymphocytes are taken from patients suffering from a disease not related to a lymphocytic pathological condition (hemochromatosis).
(§2) The cells were cultured in a culture medium composed either of RPMI 1640 (B lymphocytes) or of DMEM (COS7, HCT116, HGT1, 293, HeLa) containing 10% of FCS (fetal calf serum, 1% of penicillin-streptomycin and 1% of glutamine, Gibco BRL). The cells are distributed in a 24-well plate and cultured at 37° C. in a humid atmosphere under 5% CO2.
(§3) 400 μl of cell suspension (1×10^6 cells/ml) per well were treated for 4 h or 24 h with various concentrations of peptides. The test for activity of the peptides in the presence of emetine (FIG. 6) was carried out by preincubating the cells with 100 μM of emetine for one hour before the addition of peptide.
(§4) After the cells have been washed with PBS, they were analyzed using the Annexin V-FITC IP system according to the supplier's recommendations (Beckman Coulter).
(§5) The cells of lymphoid origin all originated from samples taken from patients suffering from various pathological conditions classified according to the seat of the tumor proliferation. This proliferation takes place either in the bone marrow, for CLL, B-cell prolymphocytic leukemia and T-cell acute lymphoblastic leukemia (T-ALL); or in the lymph nodes for mantle cell lymphoma and marginal zone lymphoma. A classification can also be carried out according to the cell type affected: B lymphocytes (CLL, B-cell prolymphocytic leukemia, mantle cell lymphoma and marginal zone lymphoma) or T lymphocytes (T-ALL).

The test system of experiment [3] is T lymphocytes from a patient suffering from T-cell acute lymphoblastic leukemia (T-ALL). The experiment is classed as cell-based, human. Particulars: FIG. 7, 4 H incubation. Here is the method:
as §1, §2, §3, §4, §5

The subject of experiment [4] is mantle cell lymphoma cells. The experiment is classed as cell-based, human. Particulars: 4 h, 40 μM. Here is the method:
as §1, §2, §3, §4, §5

Experiment [5] relates to marginal zone lymphoma (MZL) cells. The experiment is classed as cell-based, human. Particulars: 4 h, 40 μM. Here is the method: as §1, §2, §3, §4, §5
The subject of experiment [6] is HGT1 cell line derived from a gastric cancer. The experiment is classed as cell-based. Conditions: 4 h, 40 μM. Here is the method:
as §1, §2, §3, §4

Experiment [7] deals with cells derived from a human colon cancer (HCT116). The experiment is classed as cell-based. Conditions: 4 h, 40 μM. Here is the method: as §1, §2, §3, §4
Experiment [8] concerns cells derived from a simian kidney cancer (COS7). Type of experiment: cell-based. Conditions: 4 h, 40 μM. Here is the method:
as §1, §2, §3, §4

For experiment [9], the system named is HeLa cells (cervical cancer). Kind of experiment: Cell survival of HeLa cells, Syto 13/propidium iodide fluorescence microscopy. Type of experiment: cell-based. Particulars: one hour incubation, various concentrations; FIG. 10. Here is the method:
The cells cultured in glass-bottomed multiwell plates are incubated for one hour with the A1WT or A1 YALA peptide at the concentrations indicated on the figure. The percentage cell survival is obtained by calculating the ratio between the cells stained with Syto 13 and those stained with propidium iodide (see Materials and Methods).
The analyses were carried out on a Zeiss Observer Z1 epifluorescence microscope. The cells are cultured in a glass-bottomed multiwell plate, propidium iodide and Syto13 (Invitrogen) are added to the medium at a concentration of 1 mg/ml and 5 μM, respectively. The Syto 13 binds to the DNA in the nuclei of the cells which then emit a green fluorescence. When the membrane permeability is modified during the cell death process, the propidium iodide penetrates the cell and causes the appearance of a red fluorescence when it binds to the DNA of the cell nuclei. The ratio between the number of nuclei emitting a green fluorescence and the number of nuclei emitting a red fluorescence represents the fraction of live cells expressed as percentage cell survival in the figures.

Experiment [10] concerns control T lymphocytes (patients suffering from hemochromatosis). Briefly: Cell survival of control T lymphocytes, annexin/propidium iodide flow cytometry. Type of experiment: cell-based, human. Particulars: 40 μM, 4 hours; FIG. 9. (Flow cytometry measures light scatter and fluorescence of single cells or particles in a stream.)

For “RRKYGRDFLLRFRYIRS [A1 WT IRS, RRKYGRDFLLRFRYIRS]”, the “inhibition of translation (luciferase activity)” value in experiment [1] is reported as “more substantially inhibits the translation”. Moreover, the cell survival in [2] is on record as 20%; in experiment [6] it was “more than 88%”; in [7], 94%; in [8] it was 90%. Also, the “effect on cell survival” value in experiment [3] is reported as “as great as for the CLL cells”; in experiment [9], “high sensitivity”. The survival rate result in [4] and in experiment [5] was “approximately 30%” throughout. Further, the “effect of the peptide on cell mortality, in words (relative to A1 WT IRS)” value in [10] is given as “the survival rate is higher in the control T cells”.
